Source: the NIST ThermoML archive (doi:10.1016/j.fluid.2010.10.028)

Assay: xn = mol fraction of the nth substance listed
Settings: Liquid, Vibrating tube method

CC(C)=O [acetone] + CCCCCCC
Settings	mass density [kg/m3]
407.24 K, 19810 kPa, x1 = 0.7024	645.07
407.24 K, 34830 kPa, x1 = 0.7024	668.11
407.24 K, 39830 kPa, x1 = 0.7024	674.52
407.24 K, 44820 kPa, x1 = 0.7024	680.48
407.24 K, 49810 kPa, x1 = 0.7024	686.06
407.24 K, 54890 kPa, x1 = 0.7024	691.39
407.24 K, 59890 kPa, x1 = 0.7024	696.35
407.24 K, 64860 kPa, x1 = 0.7024	701.02
407.24 K, 69850 kPa, x1 = 0.7024	705.48
407.24 K, 74830 kPa, x1 = 0.7024	709.73
407.24 K, 79820 kPa, x1 = 0.7024	713.81
407.24 K, 84800 kPa, x1 = 0.7024	717.74
407.24 K, 94760 kPa, x1 = 0.7024	725.11
407.24 K, 99830 kPa, x1 = 0.7024	728.64
407.24 K, 119800 kPa, x1 = 0.7024	741.56
407.25 K, 89790 kPa, x1 = 0.7024	721.47
407.25 K, 104820 kPa, x1 = 0.7024	732.04
407.25 K, 109820 kPa, x1 = 0.7024	735.31
407.25 K, 114820 kPa, x1 = 0.7024	738.47
407.25 K, 124810 kPa, x1 = 0.7024	744.56
407.25 K, 129820 kPa, x1 = 0.7024	747.45
417.16 K, 1870 kPa, x1 = 0.611	581.34
417.16 K, 4870 kPa, x1 = 0.611	591.69
417.16 K, 9860 kPa, x1 = 0.611	605.85
417.16 K, 14870 kPa, x1 = 0.611	617.52
417.16 K, 19870 kPa, x1 = 0.611	627.57
417.16 K, 29860 kPa, x1 = 0.611	644.4
417.16 K, 34860 kPa, x1 = 0.611	651.63
417.16 K, 44870 kPa, x1 = 0.611	664.46
417.16 K, 49860 kPa, x1 = 0.611	670.17
417.16 K, 54850 kPa, x1 = 0.611	675.54
417.16 K, 59830 kPa, x1 = 0.611	680.59
417.16 K, 64940 kPa, x1 = 0.611	685.5
417.16 K, 69910 kPa, x1 = 0.611	690.02
417.16 K, 74900 kPa, x1 = 0.611	694.35
417.16 K, 79880 kPa, x1 = 0.611	698.49
417.16 K, 84870 kPa, x1 = 0.611	702.46
417.16 K, 89850 kPa, x1 = 0.611	706.26
417.16 K, 94840 kPa, x1 = 0.611	709.93
417.16 K, 99820 kPa, x1 = 0.611	713.43
417.16 K, 119850 kPa, x1 = 0.611	726.48
417.17 K, 1870 kPa, x1 = 0.492	575.55
417.17 K, 4860 kPa, x1 = 0.492	585.56
417.17 K, 9850 kPa, x1 = 0.492	599.32
417.17 K, 24840 kPa, x1 = 0.611	636.42
417.17 K, 39880 kPa, x1 = 0.611	658.3
417.17 K, 44850 kPa, x1 = 0.492	656.44
417.17 K, 49850 kPa, x1 = 0.492	662.04
417.17 K, 54840 kPa, x1 = 0.492	667.29
417.17 K, 59840 kPa, x1 = 0.492	672.26
417.17 K, 104790 kPa, x1 = 0.611	716.82
417.17 K, 104800 kPa, x1 = 0.492	707.7
417.17 K, 109770 kPa, x1 = 0.492	710.89
417.17 K, 109780 kPa, x1 = 0.611	720.13
417.17 K, 114870 kPa, x1 = 0.611	723.4
417.17 K, 124850 kPa, x1 = 0.611	729.46
417.17 K, 129850 kPa, x1 = 0.611	732.41
417.18 K, 1840 kPa, x1 = 0.801	597.33
417.18 K, 4870 kPa, x1 = 0.801	607.96
417.18 K, 14870 kPa, x1 = 0.492	610.71
417.18 K, 19870 kPa, x1 = 0.492	620.5
417.18 K, 24830 kPa, x1 = 0.492	629.07
417.18 K, 29860 kPa, x1 = 0.492	636.88
417.18 K, 34860 kPa, x1 = 0.492	643.95
417.18 K, 39860 kPa, x1 = 0.492	650.43
417.18 K, 64820 kPa, x1 = 0.492	676.9
417.18 K, 69910 kPa, x1 = 0.492	681.45
417.18 K, 74890 kPa, x1 = 0.492	685.69
417.18 K, 79880 kPa, x1 = 0.492	689.75
417.18 K, 84870 kPa, x1 = 0.492	693.62
417.18 K, 89860 kPa, x1 = 0.492	697.34
417.18 K, 94830 kPa, x1 = 0.492	700.9
417.18 K, 99820 kPa, x1 = 0.492	704.36
417.18 K, 114850 kPa, x1 = 0.492	714.07
417.18 K, 119830 kPa, x1 = 0.492	717.08
417.18 K, 124850 kPa, x1 = 0.492	720.01
417.18 K, 129840 kPa, x1 = 0.492	722.86
417.19 K, 2070 kPa, x1 = 0.4	611.4
417.19 K, 2070 kPa, x1 = 0.8992	611.4
417.19 K, 5030 kPa, x1 = 0.4	621.55
417.19 K, 5030 kPa, x1 = 0.8992	621.55
417.19 K, 9870 kPa, x1 = 0.801	622.44
417.19 K, 10010 kPa, x1 = 0.4	635.78
417.19 K, 10010 kPa, x1 = 0.8992	635.78
417.19 K, 14860 kPa, x1 = 0.801	634.41
417.19 K, 15000 kPa, x1 = 0.4	647.66
417.19 K, 15000 kPa, x1 = 0.8992	647.66
417.19 K, 19860 kPa, x1 = 0.801	644.76
417.19 K, 19970 kPa, x1 = 0.4	657.99
417.19 K, 19970 kPa, x1 = 0.8992	657.99
417.19 K, 24870 kPa, x1 = 0.801	653.93
